Laboratory results from patent US11040033B2 (Gilead Sciences, Inc., priority 2017, dated 2021).

target: T1, IDO1 (Homo sapiens, UniProt P14902); assay: Cell-based (HeLa) assay for measurement of IDO1 inhibition (kynurenine levels in supernatant after IFNγ induction); conditions: H1-HeLa cells, IFNγ-induced IDO1, 48 hour incubation, kynurenine absorbance at 480 nm; geometric mean of a minimum of four determinations
T1 construct: HeLa cells were treated with a test compound in the presence of IFNγ, which induces IDO1 expression; endogenous in cells; host or cells: H1-HeLa cells (ATCC #CRL-1958), induced with IFNγ
Experimental: To measure IDO1 inhibition in tissue culture, HeLa cells were treated with a test compound in the presence of IFNγ, which induces IDO1 expression. Following incubation, cell supernatants were assayed for kynurenine levels, an indicator of IDO1 activity.
H1-HeLa cells (ATCC #CRL-1958) were seeded in 384-well plates (Greiner #82051-282) at a volume […] (Corning #15-018-CM) supplemented with 10% FBS (Corning #35-011-CV) and 1% P/S/G (Corning #30-009-CL) at a density of 1,250 cells/well and incubated overnight at 37° C., 5% CO2/100% humidity. The following day, the test compounds were added in DMSO (0.5% final) at various concentrations, and IDO1 was inducibly expressed by the addition of 50 uL/well of 50 ng/mL of INFγ(Peprotech #300-02) in cell plating media. As a positive control, 50 uL of the cell plating media without IFNγ was added to several wells. Following a 48 hour incubation, the plates were spun down at 1,200 RPM for 5 min at 10° C. 65 μL/well of the supernatant was then transferred to new 384-well plates (Thermo #262160) that contained 10 uL/well of 30% TCA (Sigma #T0699), and the plates were sealed and incubated at 60° C. for 30 min. The plates were then centrifuged for 15 min at 2,000 RPM at 10° C. 40 μL/well of the supernatant was transferred to new 384-well plates (Thermo #262160) and was reacted with 40 μL/well of 2% (w/v) p-dimethylaminobenzaldehyde (Sigma #156417) in glacial acetic acid (Sigma #A6283). The reaction was incubated at room temperature for 10 min and absorbance at 480 nm was read using a PerkinElmer Envision plate reader.
Data in Table 1 were normalized based on positive (−IFNγ) and negative (+IFNγ) controls and EC50 values were calculated from the fit of the dose-response curves to a four-parameter equation. All EC50 values represent geometric mean values of a minimum of four determinations. These assays generally produced results within 2-fold of the reported mean.

T1 sequence (P14902 whole entry): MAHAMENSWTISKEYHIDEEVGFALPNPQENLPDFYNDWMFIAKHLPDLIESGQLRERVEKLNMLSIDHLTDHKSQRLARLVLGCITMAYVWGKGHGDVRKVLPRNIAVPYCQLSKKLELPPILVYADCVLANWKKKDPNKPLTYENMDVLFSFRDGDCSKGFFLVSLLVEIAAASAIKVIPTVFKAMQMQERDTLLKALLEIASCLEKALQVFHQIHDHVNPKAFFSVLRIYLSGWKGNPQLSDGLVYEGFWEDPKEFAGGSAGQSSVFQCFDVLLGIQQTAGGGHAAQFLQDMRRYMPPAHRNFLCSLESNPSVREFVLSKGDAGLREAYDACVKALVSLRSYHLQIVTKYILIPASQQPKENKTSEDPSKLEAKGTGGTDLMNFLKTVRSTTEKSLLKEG

| SMILES | EC50 |
| --- | --- |
| Cn1cnc(-c2ncc3c(-c4ccc(C(F)(F)F)c(C(=O)Nc5ccc(F)cc5)c4)cccn23)c1 [Example 13, N-(4-fluorophenyl)-5-(3-(1-methyl-1H-imidazol-4-yl)imidazo[1,5-a]pyridin-8-yl)-2-(trifluoromethyl)benzamide] | 365 nM |
| Cc1ncc(-c2cccn3c(-c4cccc(F)c4Cl)ncc23)cc1C(=O)Nc1ccc(F)cc1 [Example 87, 5-(3-(2-chloro-3-fluorophenyl)imidazo[1,5-a]pyridin-8-yl)-N-(4-fluorophenyl)-2-methylnicotinamide] | 13.3 nM |
| O=C(Nc1ccc(F)cc1)c1cc(-c2cccn3c(-c4cnccn4)ncc23)ccc1C(F)(F)F [Example 36] | 25.2 nM |
| Cc1ncc(-c2ccnn3c(-c4cccc(F)c4F)nnc23)cc1C(=O)Nc1ccc(F)cc1 [Example 50, 5-(3-(2,3-difluorophenyl)-[1,2,4]triazolo[4,3-b]pyridazin-8-yl)-N-(4-fluorophenyl)-2-methylnicotinamide] | 1890 nM |
| Cc1ncc(-c2cccn3c(C4CC4)ncc23)cc1C(=O)Nc1ccc(F)cc1 [Example 90, 5-(3-cyclopropylimidazo[1,5-a]pyridin-8-yl)-N-(4-fluorophenyl)-2-methylnicotinamide] | 2940 nM |
| Cc1cc(NC(=O)c2cc(-c3cccn4c(-c5cccc(F)c5F)ncc34)cnc2C)ccn1 [Example 71, 5-(3-(2,3-difluorophenyl)imidazo[1,5-a]pyridin-8-yl)-2-methyl-N-(2-methylpyridin-4-yl)nicotinamide] | 656 nM |
| O=C(Nc1ccc(F)cc1)c1cc(-c2cccn3c(-c4ncccn4)ncc23)ccc1C(F)(F)F [Example 45] | 16.4 nM |
| O=C(Nc1ccc(F)cc1)c1nc(-c2cccn3c(-c4cccc(F)c4F)ncc23)ccc1C(F)(F)F [Example 38, 6-(3-(2,3-difluorophenyl)imidazo[1,5-a]pyridin-8-yl)-N-(4-fluorophenyl)-3-(trifluoromethyl)picolinamide] | 23.8 nM |
| Cc1ncc(-c2cccn3c(-c4cccc(F)c4F)ncc23)cc1C(=O)Nc1ccccc1 [Example 66, 5-(3-(2,3-difluorophenyl)imidazo[1,5-a]pyridin-8-yl)-2-methyl-N-phenylnicotinamide] | 15.3 nM |
| O=C(Nc1ccc(F)cc1)c1cc(-c2cccn3c(-c4cc[nH]n4)ncc23)ccc1C(F)(F)F [Example 32, 5-(3-(1H-pyrazol-3-yl)imidazo[1,5-a]pyridin-8-yl)-N-(4-fluorophenyl)-2-(trifluoromethyl)benzamide] | 34.9 nM |

Continued, values first:

| EC50 | SMILES |
| --- | --- |
| 112 nM | Cc1ncc(-c2cccn3c(-c4cc(F)ccn4)ncc23)cc1C(=O)Nc1ccc(F)cc1 [Example 23, N-(4-fluorophenyl)-5-(3-(4-fluoropyridin-2-yl)imidazo[1,5-a]pyridin-8-yl)-2-methylnicotinamide] |
| 23.1 nM | Cc1ccc(-c2cccn3c(-c4ncco4)ncc23)cc1C(=O)Nc1ccc(F)cc1 [Example 40, N-(4-fluorophenyl)-2-methyl-5-(3-(oxazol-2-yl)imidazo[1,5-a]pyridin-8-yl)benzamide] |
| 3840 nM | Cc1nnc(-c2ncc3c(-c4ccc(C)c(C(=O)Nc5ccc(F)cc5)c4)cccn23)o1 [Example 2, N-(4-fluorophenyl)-2-methyl-5-(3-(5-methyl-1,3,4-oxadiazol-2-yl)imidazo[1,5-a]pyridin-8-yl)benzamide] |
| 15.7 nM | Cc1ncc(-c2cccn3c(-c4ccccc4F)ncc23)cc1C(=O)Nc1ccc(F)cc1 [Example 49, N-(4-fluorophenyl)-5-(3-(2-fluorophenyl)imidazo[1,5-a]pyridin-8-yl)-2-methylnicotinamide] |
| 322 nM | Cc1ccc(-c2cccn3c(-c4cn(C)cn4)ncc23)cc1C(=O)Nc1ccc(F)cc1 [Example 14, N-(4-fluorophenyl)-2-methyl-5-(3-(1-methyl-1H-imidazol-4-yl)imidazo[1,5-a]pyridin-8-yl)benzamide] |
| 809 nM | Cc1ccc(-c2cccn3c(-c4ccccc4)nnc23)cc1C(=O)Nc1ccc(F)cc1 [Example 9, N-(4-fluorophenyl)-2-methyl-5-(3-phenyl-[1,2,4]triazolo[4,3-a]pyridin-8-yl)benzamide] |
